Reference: US9586978B2, “Anti-viral compounds” (AbbVie Inc., priority 2009, dated 2017)
Where two headings read alike, the source gives them in different places.

Experiments:
Assay type in all cases: cell-based, Hepatitis C virus
HCV genotype 2b replicon = HCV genotype 2b replicon assay; settings: Hepatitis C virus, absence of human plasma; Table 5; read-out: EC50 (nM, in the absence of HP) 2b
Description: (§1) [drawing 14] employs a biphenyl linker between the imidazole moieties. See WO2008021927(BMS). The EC50 values of BMS-790052 against different HCV genotypes were shown by Nettles et al., “BMS-790052 is a First-in-class Potent Hepatitis C Virus (HCV) NS5A Inhibitor for Patients with Chronic HCV Infection: Results from a Proof-of-concept Study”, 59th Annual Meeting of the American Association for the Study of Liver Diseases (Oct. 31-Nov. 1, 2008, San Francisco, Calif.; www.natap.org/2008/AASLD/AASLD_06.htm). […] See also Gao et al., NATURE 465:96-100 (2010). The compounds in Table 1 use different linkers between the imidazole moieties. Table 1 depicts the EC50 values of these compounds when tested using respective replicon assays in the presence of 5% (v/v) fetal bovine serum (FBS).

HCV genotype 3a replicon = HCV genotype 3a replicon assay; settings: Hepatitis C virus, read-out: EC50 (nM, in the absence of HP) 3a, absence of human plasma; Table 5
Description: as §1

HCV genotype 1a replicon = HCV genotype 1a replicon assay; settings: Hepatitis C virus
Description: as §1
(§2) Table 2 compares compounds containing unsubstituted benzimidazole to those containing halo-substituted benzimidazole. Anti-viral activities were assessed using wild-type replicons (e.g., 1b WT or 1a WT) as well as replicons containing specific NS5A mutations (e.g., 1b L28T, 1b Y93H, 1a L31V, 1a Y93C, 1a M28V, or 1a Q30E) in the absence of FBS.
(§3) Table 3 compares compounds with different linkers between the benzimidazole moieties. Anti-viral activities were determined using 1a and 1b replicon assays. “HP” refers to human plasma. […] As compared to the phenyl linker

HCV genotype 4a replicon = HCV genotype 4a replicon assay; settings: Hepatitis C virus, absence of human plasma; Table 5; read-out: EC50 (nM, in the absence of HP) 4a
Description: as §1

HCV genotype 1b replicon = HCV genotype 1b replicon assay; settings: Hepatitis C virus
Description: as §1, §2, §3

HCV genotype 2a replicon = HCV genotype 2a replicon assay; settings: Hepatitis C virus, absence of human plasma; Table 5; read-out: EC50 (nM, in the absence of HP) 2a
Description: as §1

[1] = 40% human plasma, Table 5, read-out: EC50 (nM, in the presence of 40% HP) 1a
[2] = 40% human plasma, Table 5, read-out: EC50 (nM, in the presence of 40% HP) 1b
[3] = 5% FBS and 40% human plasma, Table 3, read-out: EC50 (nM, in the presence of 5% FBS and 40% HP) 1a
[4] = 5% FBS, Table 3, read-out: EC50 (nM, in the presence of 5% FBS) 1a
[5] = 5% FBS and 40% human plasma, Table 3, read-out: EC50 (nM, in the presence of 5% FBS and 40% HP) 1b
[6] = 5% FBS, Table 3, read-out: EC50 (nM, in the presence of 5% FBS) 1b

## COC(=O)N[C@H](C(=O)N1CCC[C@H]1c1nc2cc([C@H]3CC[C@H](c4ccc5[nH]c([C@@H]6CCCN6C(=O)[C@@H](NC(=O)OC)C(C)C)nc5c4)N3c3ccc(N4CCCCC4)c(F)c3)ccc2[nH]1)C(C)C
HCV genotype 2b replicon
  EC50: ≤ 0.05 nM
HCV genotype 3a replicon
  EC50: ≤ 0.05 nM
HCV genotype 1a replicon; [1]
  EC50: 0.2 nM
HCV genotype 4a replicon
  EC50: ≤ 0.05 nM
HCV genotype 1b replicon; [2]
  EC50: 0.4 nM
HCV genotype 2a replicon
  EC50: ≤ 0.05 nM

## COC(=O)N[C@H](C(=O)N1CCC[C@H]1c1nc2cc([C@H]3CC[C@H](c4ccc5[nH]c([C@@H]6CCCN6C(=O)[C@@H](NC(=O)OC)C(C)C)nc5c4)N3c3cc(F)c(N4C[C@H]5CCCC[C@H]5C4)c(F)c3)ccc2[nH]1)C(C)C [Example 4.3, methyl{(2S)-1-[(2S)-2-{5-[(2R,5R)-1-{3,5-difluoro-4-[(3aR,7aS)-octahydro-2H-isoindol-2-yl]phenyl}-5-{2-[(2S)-1-{(2S)-2-[(methoxycarbonyl)amino]-3-methylbutanoyl}pyrrolidin-2-yl]-1H-benzimidazol-5-yl}pyrrolidin-2-yl]-1H-benzimidazol-2-yl}pyrrolidin-1-yl]-3-methyl-1-oxobutan-2-yl}carbamate]
HCV genotype 1a replicon; [1]
  EC50: 0.1 nM
HCV genotype 1b replicon; [2]
  EC50: 0.2 nM

## COC(=O)N[C@H](C(=O)N1CCC[C@H]1c1nc2cc([C@H]3CC[C@H](c4ccc5[nH]c([C@@H]6CCCN6C(=O)[C@@H](NC(=O)OC)C(C)C)nc5c4)N3c3cc(F)c(N4CCCCC4)c(F)c3)ccc2[nH]1)C(C)C
HCV genotype 2b replicon
  EC50: ≤ 0.05 nM
HCV genotype 3a replicon
  EC50: ≤ 0.05 nM
HCV genotype 1a replicon; [1]
  EC50: 0.1 nM
HCV genotype 4a replicon
  EC50: ≤ 0.05 nM
HCV genotype 1b replicon; [2]
  EC50: 0.2 nM
HCV genotype 2a replicon
  EC50: ≤ 0.05 nM

## COC(=O)N[C@H](C(=O)N1CCC[C@H]1c1nc2cc([C@H]3CC[C@H](c4ccc5[nH]c([C@@H]6CCCN6C(=O)[C@@H](NC(=O)OC)C(C)C)nc5c4)N3)ccc2[nH]1)C(C)C
HCV genotype 1a replicon; [3]
  EC50: 2500 to 8000 nM
HCV genotype 1a replicon; [4]
  EC50: > 250 nM
HCV genotype 1b replicon; [5]
  EC50: > 4500 nM
HCV genotype 1b replicon; [6]
  EC50: > 250 nM

## COC(=O)N[C@H](C(=O)N1CCC[C@H]1c1nc2cc([C@H]3CC[C@H](c4ccc5[nH]c([C@@H]6CCCN6C(=O)[C@@H](NC(=O)OC)C(C)C)nc5c4)N3c3ccc(N4CCCCC4)c(Cl)c3)ccc2[nH]1)C(C)C
HCV genotype 2b replicon
  EC50: ≤ 0.05 nM
HCV genotype 3a replicon
  EC50: ≤ 0.05 nM
HCV genotype 1a replicon; [1]
  EC50: 0.2 nM
HCV genotype 4a replicon
  EC50: ≤ 0.05 nM
HCV genotype 1b replicon; [2]
  EC50: 0.2 nM
HCV genotype 2a replicon
  EC50: ≤ 0.05 nM

## COC(=O)N[C@H](C(=O)N1C[C@@H](OC)C[C@H]1c1nc2cc([C@H]3CC[C@H](c4ccc5[nH]c([C@@H]6C[C@H](OC)CN6C(=O)[C@@H](NC(=O)OC)C(C)C)nc5c4)N3c3ccc(C(C)(C)C)cc3)ccc2[nH]1)C(C)C
HCV genotype 1a replicon; [1]
  EC50: 0.3 nM
HCV genotype 1b replicon; [2]
  EC50: 0.8 nM

## CCOC(=O)N[C@H](C(=O)N1CCC[C@H]1c1nc2cc(-c3ccc(-c4ccc5nc([C@@H]6CCCN6C(=O)[C@@H](NC(=O)OCC)C(C)C)[nH]c5c4)nc3)ccc2[nH]1)C(C)C
HCV genotype 1a replicon; [3]
  EC50: 83 nM
HCV genotype 1a replicon; [4]
  EC50: 6.8 nM
HCV genotype 1b replicon; [5]
  EC50: 190 nM
HCV genotype 1b replicon; [6]
  EC50: 2.9 nM

## COC(=O)N[C@H](C(=O)N1CCC[C@H]1c1nc2cc([C@H]3CC[C@H](c4ccc5[nH]c([C@@H]6CCCN6C(=O)[C@@H](NC(=O)OC)C(C)C)nc5c4)N3c3ccc(C4CC4)c(F)c3)ccc2[nH]1)C(C)C
HCV genotype 2b replicon
  EC50: ≤ 0.05 nM
HCV genotype 3a replicon
  EC50: ≤ 0.05 nM
HCV genotype 1a replicon; [1]
  EC50: 0.1 nM
HCV genotype 4a replicon
  EC50: ≤ 0.05 nM
HCV genotype 1b replicon; [2]
  EC50: 0.1 nM
HCV genotype 2a replicon
  EC50: ≤ 0.05 nM

## COC(=O)N[C@H](C(=O)N1CCC[C@H]1c1nc2cc(-c3ccc(-c4ccc5nc([C@@H]6CCCN6C(=O)[C@@H](NC(=O)OC)C(C)C)[nH]c5c4)nc3)ccc2[nH]1)C(C)C
HCV genotype 1a replicon; [3]
  EC50: < 3.2 nM
HCV genotype 1a replicon; [4]
  EC50: < 0.32 nM
HCV genotype 1b replicon; [5]
  EC50: < 3.2 nM
HCV genotype 1b replicon; [6]
  EC50: < 0.32 nM

## COC(=O)N[C@H](C(=O)N1CCC[C@H]1C(=O)Nc1ccc([C@H]2CC[C@H](c3ccc(NC(=O)[C@@H]4CCCN4C(=O)[C@@H](NC(=O)OC)C(C)C)cc3)N2c2ccc(C(C)(C)C)cc2)cc1)C(C)C
HCV genotype 2b replicon
  EC50: ≤ 0.05 nM
HCV genotype 3a replicon
  EC50: ≤ 0.05 nM
HCV genotype 1a replicon; [1]
  EC50: 0.2 nM
HCV genotype 4a replicon
  EC50: ≤ 0.05 nM
HCV genotype 1b replicon; [2]
  EC50: 0.1 nM
HCV genotype 2a replicon
  EC50: ≤ 0.05 nM
